This is an account of results in US7175872B2, “Pyridinium-Betain compounds for use as taste modulators” (Nestec S.A., priority 2002, dated 2007).

Structures can show the parent of a compound that is named as a salt.

Type in all cases: in vivo
For one test, the system named is umami taste of MSG. Description: Iso-intensity: relative umami taste of MSG/Alapyridaine mixtures. The conditions noted are these: 1.5 mmol/kg MSG and 6.0 mmol/kg Alapyridaine vs 1.5 mmol/kg MSG. The procedure: • Sensory panel training: […] Sensory analyses were performed in a sensory panel room at 22-25° C. on three different sessions. • Taste thresholds: The taste thresholds of the tastants or mixtures containing basic tastants plus Pyridinium-Betains were determined in a triangle test using Evian® mineral water as the solvent at a defined pH ([…] and H.-D. Belitz, Z. Lebensm. Unters. Forsch. 1975, 159, 65-72). The samples (3 mL) were presented in order of increasing concentrations (serial 1:1 dilutions). The threshold values evaluated in two different sessions were averaged. […] The taste intensities of aqueous (Evian®) solutions containing a basic tastant, such as glucose and MSG, for example, in constant concentrations and the compounds of the general formula (A), for example […], in various concentrations were compared with those of a solution containing the basic tastant only. […] The relative taste strength (taste enhancing factor) of a mixture containing the basic […] was related to the basic tastants glucose, MSG, or other tastants, respectively, as standard substances, and was determined as the ratio of the concentrations c of iso-intensely tasting solutions of the basic tastant, such as glucose (glc), and the mixture containing tastant plus Pyridinium-Betain, […])=[…] […]

A further test has as its system sweet taste of glucose. Description: Sweet taste detection threshold of glucose/Pyridinium-Betaine mixtures (triangle test, sensory panel). The conditions noted are these: equimolar mixture with glucose; for Threshold decrease: vs glucose in water 50.0 mmol/L. The procedure:
• Sensory panel training: […] Sensory analyses were performed in a sensory panel room at 22-25° C. on three different sessions. • Taste thresholds: The taste thresholds of the tastants or mixtures containing basic tastants plus Pyridinium-Betains were determined in a triangle test using Evian® mineral water as the solvent at a defined pH ([…] and H.-D. Belitz, Z. Lebensm. Unters. Forsch. 1975, 159, 65-72). The samples (3 mL) were presented in order of increasing concentrations (serial 1:1 dilutions). The threshold values evaluated in two different sessions were averaged. […] The taste intensities of aqueous (Evian®) solutions containing a basic tastant, such as glucose and MSG, for example, in constant concentrations and the compounds of the general formula (A), for example […], in various concentrations were compared with those of a solution containing the basic tastant only. To achieve this, triangle tests were performed with two glass vials containing the basic tastant in constant concentrations, and one glass vial containing a stepwise 1:1-diluted mixture of basic […]. […] The relative taste strength (taste enhancing factor) of a mixture containing the basic […] was related to the basic tastants glucose, MSG, or other tastants, respectively, as standard substances, and was determined as the ratio of the concentrations c of iso-intensely tasting solutions of the basic tastant, such as glucose (glc), and the mixture containing tastant plus Pyridinium-Betain, […])=[…] This taste enhancing effect is illustrated in examples. The sweet taste thresholds of equimolar mixtures of sweet tasting compounds and various Pyridinium-Betaines were determined by a triangle test using EVIAN® mineral water as the solvent. The sensorial evaluations were performed at different pH values. The equimolar mixture of […] and sucrose at pH 7.0 was evaluated with a 4-fold lower sweet threshold concentration than pure sucrose (Table 1). […] is able to reduce the sweet threshold of glucose 16-fold at pH 7.0 and pH 9.0, whereas at pH 5.0 a gain the sweet taste perception […] (Table 2). […] Using the dipeptide derivative (S)-[…] as a taste-enhancer leads to a 16-fold threshold reduction compared to glucose.

The subject of the next test is sweet taste of L-alanine. Description: Sweet taste detection threshold of L-alanine/Pyridinium-Betaine mixtures (triangle test, sensory panel). As to conditions: mixture with L-alanine; for Threshold decrease: vs L-alanine in water 12.5 mmol/L. How it is done:
• Sensory panel training: […] Sensory analyses were performed in a sensory panel room at 22-25° C. on three different sessions. • Taste thresholds: The taste thresholds of the tastants or mixtures containing basic tastants plus Pyridinium-Betains were determined in a triangle test using Evian® mineral water as the solvent at a defined pH ([…] and H.-D. Belitz, Z. Lebensm. Unters. Forsch. 1975, 159, 65-72). The samples (3 mL) were presented in order of increasing concentrations (serial 1:1 dilutions). The threshold values evaluated in two different sessions were averaged. […] The taste intensities of aqueous (Evian®) solutions containing a basic tastant, such as glucose and MSG, for example, in constant concentrations and the compounds of the general formula (A), for example […], in various concentrations were compared with those of a solution containing the basic tastant only. To achieve this, triangle tests were performed with two glass vials containing the basic tastant in constant concentrations, and one glass vial containing a stepwise 1:1-diluted mixture of basic […]. […] The relative taste strength (taste enhancing factor) of a mixture containing the basic […] was related to the basic tastants glucose, MSG, or other tastants, respectively, as standard substances, and was determined as the ratio of the concentrations c of iso-intensely tasting solutions of the basic tastant, such as glucose (glc), and the mixture containing tastant plus Pyridinium-Betain, […])=[…] […] This taste enhancing effect is illustrated in examples. Besides the two carbohydrates, the sweet amino acid L-alanine was also tested with […]. Again, the best impact on sweet taste perception was found for the mixture at pH 9.0, resulting in an 8-fold lower threshold.

For a further test, the system named is salty taste of NaCl. As to the kind of experiment: Salt-intensity ranking of NaCl/Pyridinium-Betaine mixtures by sensory panel. As to conditions: 20 mmol/L each, pH 7.0; scale 0 (not salty) to 5 (very salty), reference NaCl-solution ranked as 1. An excerpt:
The salt-intensities of various NaCl/Pyridinium-Betaine mixtures (20 mmol/L each) were compared to a 20 mmol/L NaCl standard solution. The sensory panel was asked to rank the salt-intensities of these solutions on a scale from 0 (not salty) to 5 (very salty), while the reference NaCl-solution was ranked as 1. As listed in Table 6, the most intense salty taste was found in the solution containing NaCl and Alapyridaine, as well as in the triple mixture with L-arginine. A slight impact was found for Argpyridaine and L-arginine.

For the compound `CC(C(=O)[O-])[n+]1cc(O)ccc1CO` (stereo not drawn) [Alapyridaine, N-(1-carboxyethyl)-3-hydroxy-6-hydroxymethyl-pyridinium inner salt], in the test on umami taste of MSG, the “maximum umami-taste intensity (iso-intensity)” value is 4 -fold. Moreover, the Sweet detection threshold was 6.0 mmol/kg water with sweet taste of glucose (pH 5.0); 3.0 mmol/kg water with sweet taste of glucose (pH 7.0); 3.0 mmol/kg water in the test with sweet taste of glucose (pH 9.0); 6.0 mmol/kg water in the test on sweet taste of L-alanine (pH 6.0); 3.0 mmol/kg water in the test with sweet taste of L-alanine (pH 7.0); 1.5 mmol/kg water in the test with sweet taste of L-alanine (pH 9.0). Further, the Taste quality result with sweet taste of glucose (pH 5.0) is reported as “sweet/”; in the test with sweet taste of glucose (pH 7.0) it was “sweet”; in the test with sweet taste of glucose (pH 9.0) it was “sweet”; in the test on sweet taste of L-alanine (pH 6.0), “sweet”; in the test on sweet taste of L-alanine (pH 7.0) it was “sweet”; with sweet taste of L-alanine (pH 9.0), “sweet”. For the same compound, the Threshold decrease with sweet taste of glucose (pH 5.0) amounted to 8.0; in the test on sweet taste of glucose (pH 7.0) it was 16; in the test with sweet taste of glucose (pH 9.0), 16; in the test with sweet taste of L-alanine (pH 6.0), 2.0; in the test on sweet taste of L-alanine (pH 7.0), 4; in the test with sweet taste of L-alanine (pH 9.0) it was 8. Besides, the “reduction of the sweet threshold” value in the test on sweet taste of L-alanine (pH 5.0) is “only a slight reduction”. In addition, in the test on salty taste of NaCl, the Salt-intensity is given as 0.0.
